The subject of one data set is PDA cell proliferation. Kind of data set: Inhibition of PDA cell proliferation (summary over cell lines). It is filed as cell-based. The note with it: Homo sapiens; range over cell lines of TABLE 2; 72 hours; read-out: IC50s range, inhibition of PDA cell proliferation. The procedure:
(§1) Efficacy of ROCK inhibition evaluated by drug dose-response curves: The small molecule ROCK1 inhibitors, fasudil and Y27632, were analyzed for their effects in pancreatic cancer cell lines. Drug dose-response curves were created to assess the efficacy of ROCK inhibition at 72 hours of drug exposure. FIG. 5A presents the drug dose-response curves for fasudil exposure in MiaPaca, Su8686, Panc-1 and CW1 cell line cells. FIG. 5B presents the drug dose-response curves for Y-27632 exposure in the same above mentioned cell lines. Gemcitabine, a nucleoside analog, replaces one of the building blocks, cytidine, during DNA replication and thus arrests tumor growth, which leads to cell death. Gemcitabine is shown for reference as illustrated in FIG. 5C.

Data set [1] relates to Collagen 1 mRNA in cultured human stellate cells. The data set is described as follows: Quantitative PCR analysis of Collagen 1 mRNA levels (FIG. 11). It is filed as cell-based. The conditions noted are these: highest concentration of fasudil (100 μm). The method, then:
Fasudil inhibits collagen expression in cultured human stellate cells: The analysis of collagen expression in cultured human stellate cells exposed to Fasudil was carried out using quantitative PCR analysis of Collagen 1 mRNA levels.

The test system of a further data set is MiaPaca2. The data set is described as follows: Drug dose-response curves, cell proliferation, MiaPaca2. Format: cell-based. The conditions noted are these: Homo sapiens, read-out: ROCK1 inhibition, IC50 values. The procedure: as §1
Data set [2] deals with collagen 1 in CW1 myofibroblasts and SU8686 cells. Kind of data set: Collagen 1 expression in single and co-cultures, dot blot (FIG. 8). Format: cell-based, human. The procedure:
Fasudil reduces collagen synthesis in co-cultured pancreatic cells: The effects of fasudil on the expression of collagen 1 in single and co-cultures of human myofibroblasts and SU8686 cells were examined. These cells were seeded and then treated with fasudil for 72 hours at the concentrations indicated. Treatment conditions are shown at top of the figure panel, and standard curve concentrations are shown below the figure panel (FIG. 8A). Calibrated collagen concentrations were shown in FIG. 8B (20 μg total protein loaded per sample). […] Fasudil inhibits collagen expression in cultured human stellate cells: The analysis of collagen expression in cultured human stellate cells exposed to Fasudil was carried out using quantitative PCR analysis of Collagen 1 mRNA levels.

The subject of data set [3] is Panc-1 cells. Kind of data set: Modified Boyden Chamber Assay, cell migration. The conditions noted are these: at both 500 μM and 20 μM. Format: cell-based, human.
For the next data set, the system named is Su8686. The data set is described as follows: Drug dose-response curves, cell proliferation, Su8686. Format: cell-based. The note with it: Homo sapiens. The procedure:
as §1

For another data set, the system named is Panc-1. Kind of data set: Drug dose-response curves, cell proliferation, Panc-1. It is filed as cell-based. The conditions noted are these: Homo sapiens, read-out: cell proliferation, IC50 values. The method, then:
as §1

Data set [4] relates to co-culture of human pancreatic cancer-derived myofibroblasts and SU8686 cells. Kind of data set: Co-culture stained for aSMA and collagen 1 (FIG. 7). The conditions noted are these: 72 hours. It is filed as cell-based.
The subject of a further data set is CW1. The data set is described as follows: Drug dose-response curves, cell proliferation, CW1. Format: cell-based. The note with it: Homo sapiens, read-out: ROCK1 inhibition, IC50 values. The procedure:
as §1

In data set [5] the test system is Panc-1 cells. The data set is described as follows: SRB (Sulphorhodamine) cell viability assay with fasudil. It is filed as cell-based, human. The method, then:
To further study the effects of fasudil at these concentrations on growth, an SRB (Sulphorhodamine) cell viability assay was performed. […] In both FIGS. 6A and 6B, “UT” stands for untreated; and “SFM” stands for serum-free media.

For data set [6], the system named is co-culture of human pancreatic cancer-derived fibroblasts and SU8686 cells. The data set is described as follows: Co-culture stained for cytokeratin and αSMA (FIG. 12). The note with it: 72 hours. Format: cell-based. From the text: Fasudil inhibits stellate cell proliferation and function: The effects of fasudil on the proliferation and expansion of the stromal compartment in a co-culture of human pancreatic cancer-derived fibroblasts and SU8686 cells were compared. […] Subsequently, cells were fixed and stained for the epithelial cell marker, cytokeratin, in green, and αSMA, in red.

Where [7] appears, read: MIA PaCa-2, MiaPaca2 cell line, 72 hours of drug exposure.
[8] abbreviates: SU.86.86, Su8686 cell line, 72 hours of drug exposure, read-out: ROCK1 inhibition, IC50 values.
The mark [9] stands for this setting: Panc-1 cell line, 72 hours of drug exposure, read-out: ROCK1 inhibition, IC50 values.
Where [10] appears, read: CW1 cell line, 72 hours of drug exposure.

Like-named read-outs stand apart in the source and are kept apart here.

The results in this text go back to patent publication US8703736B2, “Therapeutic target for pancreatic cancer cells” (The Translational Genomics Research Institute, priority 2011, dated 2014).

`O=S(=O)(c1cccc2cnccc12)N1CCCNCC1` [Fasudil, 5-(1,4-diazepan-1-ylsulfonyl)isoquinoline]: the IC50 in the data set with PDA cell proliferation was 6 to 71 µM; in the data set on MiaPaca2 (setting [7]), 55 µM; in the data set with Su8686 (setting [8]), 71.2 µM; in the data set on Panc-1 (setting [9]), over 100 µM; in the data set with CW1 (setting [10]) it was 66 µM. In addition, in data set [1], the “collagen expression (Collagen 1 mRNA)” value is recorded as “three-fold decrease in collagen expression”. Further, the “collagen synthesis relative to the untreated sample” value in data set [2] (100 μM, 50 μM, and 25 μM, 72 hours) is listed as “significant reduction in collagen synthesis”. For the same compound, the “collagen expression, dot blot on protein lysates” value in data set [2] (monocultured stellate cells (CW1) and co-cultured tumor/stellate cells (CW1/SU8686), 6-100 μm) was “Decreased collagen expression”. Also, the “migrating cells relative to serum (chemoattractant) containing media control” value in the data set on Panc-1 cells [3] is reported as “significant reduction in migrating cells”. Besides, in data set [4] (50 μM, 25 μM, and 12 μM), the “inhibition of aSMA and collagen 1 expressing myofibroblasts” value is “selectively inhibited”. Moreover, in [4] (100 μM), the “cell proliferation of both cancer cells and myofibroblasts relative to untreated” value was “significant reduction in cell proliferation”. Besides, in the data set with Panc-1 cells [5] (20 μM), the cytotoxicity entry is given as “no significant cytotoxicity”. This compound came in with a cell survival in the data set on Panc-1 cells [5] (500 μM, 24 hours) of 50.3%. The “inhibition of aSMA expressing cells (stellate cells)” value in data set [6] (50 μM, 25 μM, and 12 μM) is listed as “selectively inhibited”. In [6] (100 μM), the “cell proliferation of both cancer cells and stellate cells relative to untreated” value is listed as “significant reduction in cell proliferation”.

Consider `CC(N)C1CCC(C(=O)Nc2ccncc2)CC1` (stereo not drawn) [Y27632, 4-(1-aminoethyl)-N-pyridin-4-yl-cyclohexane-1-carboxamide], for which the IC50 in the data set on PDA cell proliferation is 6 to 71 µM; in the data set with MiaPaca2 (MIA PaCa-2, 72 h), 6.8 µM; with Su8686 (SU.86.86, 72 h), 27.9 µM; with Panc-1 (PANC-1, 72 h), over 100 µM; with CW1 (72 h) it was 6.4 µM.

Take `Nc1ccn([C@@H]2O[C@H](CO)[C@@H](O)C2(F)F)c(=O)n1` [Gemcitabine]: the IC50 in the data set on MiaPaca2 (setting [7]) is 0.056 µM; in the data set on Su8686 (setting [8]), 0.017 µM; in the data set on Panc-1 (setting [9]), over 100 µM; with CW1 (setting [10]), over 100 µM.
